Test results: patent publication US20090298820A1, “3-SUBSTITUTED-1H-PYRROLO[2,3-B]PYRIDINE AND 3-SUBSTITUTED-1H-PYRROLO[3,2-B]PYRIDINE COMPOUNDS, THEIR USE AS MTOR KINASE AND PI3 KINASE INHIBITORS, AND THEIR SYNTHESES” (Wyeth, priority 2008, published 2009)
Read-outs that look alike come from different tables or passages of the source.

What was measured:
Type in all cases: biochemical
[1] = biological target: PI3Kα (Homo sapiens, UniProt P42336); assay: PI3K-alpha fluorescence polarization assay; conditions: read-out: PI3Kα Median IC50
[2] = biological target: PI3Kγ (Homo sapiens, UniProt P48736); assay: PI3K-gamma fluorescence polarization assay; conditions: read-out: PI3Kγ Median IC50
[3] = biological target: mTOR (Homo sapiens, UniProt P42345); assay: mTOR enzyme assay (DELFIA format, His6-S6K substrate)
[4] = read-out: mTOR Kinase Median IC50

Sequence of PI3Kα (P42336 whole entry, species assumed): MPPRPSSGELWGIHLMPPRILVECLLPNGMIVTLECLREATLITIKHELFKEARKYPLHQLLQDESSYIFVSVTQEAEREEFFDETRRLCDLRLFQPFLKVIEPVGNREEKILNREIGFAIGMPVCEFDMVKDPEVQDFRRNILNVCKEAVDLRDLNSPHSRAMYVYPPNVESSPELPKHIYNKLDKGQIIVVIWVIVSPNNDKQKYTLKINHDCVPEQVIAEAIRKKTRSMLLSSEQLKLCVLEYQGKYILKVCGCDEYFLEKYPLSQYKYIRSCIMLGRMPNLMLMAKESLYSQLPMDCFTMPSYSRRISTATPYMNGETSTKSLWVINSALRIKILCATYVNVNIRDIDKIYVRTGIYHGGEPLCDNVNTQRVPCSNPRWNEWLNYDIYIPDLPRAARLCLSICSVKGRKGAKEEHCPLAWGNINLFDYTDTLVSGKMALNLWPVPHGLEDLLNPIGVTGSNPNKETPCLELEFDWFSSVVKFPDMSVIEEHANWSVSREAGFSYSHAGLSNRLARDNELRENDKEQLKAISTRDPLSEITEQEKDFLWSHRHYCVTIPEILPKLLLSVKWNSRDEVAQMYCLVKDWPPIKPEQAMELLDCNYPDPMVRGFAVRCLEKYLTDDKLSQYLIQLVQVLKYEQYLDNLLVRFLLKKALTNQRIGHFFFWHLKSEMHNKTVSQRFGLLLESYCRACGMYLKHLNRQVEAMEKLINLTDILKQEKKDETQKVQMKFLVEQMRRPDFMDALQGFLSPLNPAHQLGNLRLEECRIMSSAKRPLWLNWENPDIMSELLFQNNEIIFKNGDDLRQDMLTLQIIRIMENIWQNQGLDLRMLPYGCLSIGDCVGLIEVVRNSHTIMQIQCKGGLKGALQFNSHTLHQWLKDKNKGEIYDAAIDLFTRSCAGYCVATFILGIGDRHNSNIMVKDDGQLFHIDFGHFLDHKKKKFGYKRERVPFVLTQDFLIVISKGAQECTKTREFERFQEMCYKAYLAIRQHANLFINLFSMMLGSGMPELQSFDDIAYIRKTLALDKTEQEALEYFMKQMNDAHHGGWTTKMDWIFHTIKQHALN
Sequence of PI3Kα (P27986 whole entry partner, species assumed): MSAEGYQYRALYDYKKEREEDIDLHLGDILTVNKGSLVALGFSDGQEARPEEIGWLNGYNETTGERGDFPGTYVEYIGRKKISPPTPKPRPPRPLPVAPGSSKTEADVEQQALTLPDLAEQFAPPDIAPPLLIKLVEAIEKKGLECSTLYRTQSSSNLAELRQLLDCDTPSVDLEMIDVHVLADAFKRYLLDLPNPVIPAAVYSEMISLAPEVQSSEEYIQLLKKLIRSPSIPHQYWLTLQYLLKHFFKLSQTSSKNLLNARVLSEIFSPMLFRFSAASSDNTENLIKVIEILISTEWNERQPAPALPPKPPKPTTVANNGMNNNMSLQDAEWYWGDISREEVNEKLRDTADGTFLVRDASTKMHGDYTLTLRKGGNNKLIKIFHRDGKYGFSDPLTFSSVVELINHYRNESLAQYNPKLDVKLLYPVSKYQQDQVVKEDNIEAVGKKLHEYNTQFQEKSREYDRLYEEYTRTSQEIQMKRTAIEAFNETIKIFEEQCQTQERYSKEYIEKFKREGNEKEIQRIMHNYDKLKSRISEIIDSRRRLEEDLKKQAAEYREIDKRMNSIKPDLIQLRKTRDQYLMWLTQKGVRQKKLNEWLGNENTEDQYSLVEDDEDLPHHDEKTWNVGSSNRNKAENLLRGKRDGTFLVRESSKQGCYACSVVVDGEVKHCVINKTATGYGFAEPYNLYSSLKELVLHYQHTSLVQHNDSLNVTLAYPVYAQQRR
Sequence of PI3Kγ (P48736 whole entry, species assumed): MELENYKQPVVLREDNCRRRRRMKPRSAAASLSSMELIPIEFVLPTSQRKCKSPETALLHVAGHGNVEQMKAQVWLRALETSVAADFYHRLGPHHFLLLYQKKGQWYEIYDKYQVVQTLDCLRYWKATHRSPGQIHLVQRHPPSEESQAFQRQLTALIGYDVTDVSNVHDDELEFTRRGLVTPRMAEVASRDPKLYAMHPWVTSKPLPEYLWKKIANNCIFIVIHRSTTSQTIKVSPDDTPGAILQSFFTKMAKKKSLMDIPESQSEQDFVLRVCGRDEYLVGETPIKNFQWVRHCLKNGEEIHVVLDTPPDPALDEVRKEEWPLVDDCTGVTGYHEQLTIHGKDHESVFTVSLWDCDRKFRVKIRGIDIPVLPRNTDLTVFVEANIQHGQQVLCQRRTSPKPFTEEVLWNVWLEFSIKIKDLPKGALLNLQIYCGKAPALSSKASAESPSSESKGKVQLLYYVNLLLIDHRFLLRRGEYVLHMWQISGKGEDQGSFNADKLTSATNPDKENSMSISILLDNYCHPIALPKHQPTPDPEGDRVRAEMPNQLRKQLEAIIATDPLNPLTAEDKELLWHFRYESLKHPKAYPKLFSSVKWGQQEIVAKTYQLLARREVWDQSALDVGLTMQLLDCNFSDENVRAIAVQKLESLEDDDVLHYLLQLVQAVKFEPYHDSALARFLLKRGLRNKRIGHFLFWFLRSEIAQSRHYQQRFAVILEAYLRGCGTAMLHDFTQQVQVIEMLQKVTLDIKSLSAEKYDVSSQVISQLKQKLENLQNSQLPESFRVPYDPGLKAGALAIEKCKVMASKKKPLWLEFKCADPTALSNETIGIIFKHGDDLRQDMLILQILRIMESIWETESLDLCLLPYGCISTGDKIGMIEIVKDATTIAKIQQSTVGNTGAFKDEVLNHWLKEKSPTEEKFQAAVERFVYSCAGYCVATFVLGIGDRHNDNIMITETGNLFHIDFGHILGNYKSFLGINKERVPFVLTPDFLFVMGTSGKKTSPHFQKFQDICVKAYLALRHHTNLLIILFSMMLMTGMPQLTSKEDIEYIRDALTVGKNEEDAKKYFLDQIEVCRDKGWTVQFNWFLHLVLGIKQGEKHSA

Row | IC50 [1] [nM] | IC50 [2] [nM] | IC50 [3, 4] [nM] | Compound | IC50 [3] [nM]
1 | 8 | 27 | 0.2 | COc1ccc(-c2ccnc3c2c(/C=C2\Oc4cc(O)cc(O)c4C2=O)cn3C)cc1S(=O)(=O)N1CCOCC1 [Compound 88, (2Z)-4,6-dihydroxy-2-({4-[4-methoxy-3-(morpholin-4-ylsulfonyl)phenyl]-1-methyl-1H-pyrrolo[2,3-b]pyridin-3-yl}methylene)-1-benzofuran-3(2H)-one] | –
2 | 8 | 50 | 0.5 | COc1ccc(-c2ccnc3c2c(/C=C2\Oc4cc(O)cc(O)c4C2=O)cn3C)cc1S(=O)(=O)N1CCCC1 [Compound 89, (2Z)-4,6-dihydroxy-2-({4-[4-methoxy-3-(pyrrolidin-1-ylsulfonyl)phenyl]-1-methyl-1H-pyrrolo[2,3-b]pyridin-3-yl}methylene)-1-benzofuran-3(2H)-one] | –
3 | 10 | 16 | 24 | Cn1cc(/C=C2\Oc3cccc(O)c3C2=O)c2c(-c3ccc(S(=O)(=O)NCc4ccccc4)cc3)ccnc21 [Compound 90, N-benzyl-4-{3-[(Z)-(4-hydroxy-3-oxo-1-benzofuran-2(3H)-ylidene)methyl]-1-methyl-1H-pyrrolo[2,3-b]pyridin-4-yl}benzenesulfonamide] | –
4 | 36 | 74 | 0.7 | Cn1cc(/C=C2\Oc3cccc(O)c3C2=O)c2c(-c3ccc(C(=O)N4CCCC4)cc3)ccnc21 [Compound 91, (2Z)-4-hydroxy-2-({1-methyl-4-[4-(pyrrolidin-1-ylcarbonyl)phenyl]-1H-pyrrolo[2,3-b]pyridin-3-yl}methylene)-1-benzofuran-3(2H)-one] | –
5 | 9 | 54 | 0.2 | Cn1cc(/C=C2\Oc3cc(O)cc(O)c3C2=O)c2c(-c3ccc(C(=O)N4CCCC4)cc3)ccnc21 [Compound 92, (2Z)-4,6-dihydroxy-2-({1-methyl-4-[4-(pyrrolidin-1-ylcarbonyl)phenyl]-1H-pyrrolo[2,3-b]pyridin-3-yl}methylene)-1-benzofuran-3(2H)-one] | –
6 | 301 | 2700 | 13 | Cn1cc(/C=C2\Oc3cccc(O)c3C2=O)c2c(-c3cccc(C(=O)Nc4ccc(F)cc4)c3)ccnc21 [Compound 96, N-(4-fluorophenyl)-3-{3-[(Z)-(4-hydroxy-3-oxo-1-benzofuran-2(3H)-ylidene)methyl]-1-methyl-1H-pyrrolo[2,3-b]pyridin-4-yl}benzamide] | –
7 | 13 | 321 | 0.7 | Cn1cc(/C=C2\Oc3cc(O)cc(O)c3C2=O)c2c(-c3cccc(C(=O)Nc4ccc(F)cc4)c3)ccnc21 [Compound 97, 3-{3-[(Z)-(4,6-dihydroxy-3-oxo-1-benzofuran-2(3H)-ylidene)methyl]-1-methyl-1H-pyrrolo[2,3-b]pyridin-4-yl}-N-(4-fluorophenyl)benzamide] | –
8 | 11 | 100 | 0.2 | Cn1cc(/C=C2\Oc3cc(O)cc(O)c3C2=O)c2c(-c3ccc(F)c(C(=O)Nc4ccccc4)c3)ccnc21 [Compound 98, 5-{3-[(Z)-(4,6-dihydroxy-3-oxo-1-benzofuran-2(3H)-ylidene)methyl]-1-methyl-1H-pyrrolo[2,3-b]pyridin-4-yl}-2-fluoro-N-phenylbenzamide] | –
9 | 8490 | > 10000 | 23 | CCn1cc(/C=C2\Oc3cccc(O)c3C2=O)c2c(-c3ccccc3)ccnc21 [Compound 116, (2Z)-2-[(1-ethyl-4-phenyl-1H-pyrrolo[2,3-b]pyridin-3-yl)methylene]-4-hydroxy-1-benzofuran-3(2H)-one] | –
10 | 46 | 183 | 72 | CNC(=O)Nc1ccc2c(c1)C(=O)/C(=C/c1c[nH]c3ncc(OC)cc13)O2 [Compound 119, 1-{(2Z)-2-[(5-methoxy-1H-pyrrolo[2,3-b]pyridin-3-yl)methylene]-3-oxo-2,3-dihydro-1-benzofuran-5-yl}-3-methylurea] | –
11 | 43 | 156 | 16.5 | COc1ccc(-c2ccnc3c2c(/C=C2\Oc4cccc(O)c4C2=O)cn3C)cc1S(=O)(=O)N1CCCCC1 [Compound 123, (2Z)-4-hydroxy-2-({4-[4-methoxy-3-(piperidin-1-ylsulfonyl)phenyl]-1-methyl-1H-pyrrolo[2,3-b]pyridin-3-yl}methylene)-1-benzofuran-3(2H)-one] | –
12 | 70 | 184 | 1 | CN1CCN(C(=O)c2ccc(-c3ccnc4c3c(/C=C3\Oc5cccc(O)c5C3=O)cn4C)cc2)CC1 [Compound 124, (2Z)-4-hydroxy-2-[(1-methyl-4-{4-[(4-methylpiperazin-1-yl)carbonyl]phenyl}-1H-pyrrolo[2,3-b]pyridin-3-yl)methylene]-1-benzofuran-3(2H)-one] | –
13 | 43 | 93 | 13 | Cn1cc(/C=C2\Oc3cccc(O)c3C2=O)c2c(-c3cccc(O)c3)ccnc21 [Compound 125, (2Z)-4-hydroxy-2-{[4-(3-hydroxyphenyl)-1-methyl-1H-pyrrolo[2,3-b]pyridin-3-yl]methylene}-1-benzofuran-3(2H)-one] | –
14 | 802 | 8640 | 6.2 | CN1CCOc2cc(-c3ccnc4c3c(/C=C3\Oc5cccc(O)c5C3=O)cn4C)ccc21 [Compound 126, (2Z)-4-hydroxy-2-{[1-methyl-4-(4-methyl-3,4-dihydro-2H-1,4-benzoxazin-7-yl)-1H-pyrrolo[2,3-b]pyridin-3-yl]methylene}-1-benzofuran-3(2H)-one] | –
15 | 107 | 829 | 8.1 | Cn1cc(/C=C2\Oc3cccc(O)c3C2=O)c2c(-c3ccc(-c4ccco4)cc3)ccnc21 [Compound 127, (2Z)-2-({4-[4-(2-furyl)phenyl]-1-methyl-1H-pyrrolo[2,3-b]pyridin-3-yl}methylene)-4-hydroxy-1-benzofuran-3(2H)-one] | –
16 | 154 | 263 | 3.2 | Cn1cc(/C=C2\Oc3cccc(O)c3C2=O)c2c(-c3ccc(CN4CCOCC4)cc3)ccnc21 [Compound 130, (2Z)-4-hydroxy-2-({1-methyl-4-[4-(morpholin-4-ylmethyl)phenyl]-1H-pyrrolo[2,3-b]pyridin-3-yl}methylene)-1-benzofuran-3(2H)-one] | –
17 | 156 | 1420 | 10 | Cn1cc(/C=C2\Oc3cccc(O)c3C2=O)c2c(-c3ccc(N4CCNCC4)cc3)ccnc21 [Compound 135, (2Z)-4-hydroxy-2-{[1-methyl-4-(4-piperazin-1-ylphenyl)-1H-pyrrolo[2,3-b]pyridin-3-yl]methylene}-1-benzofuran-3(2H)-one] | –
18 | 27 | 106 | 2 | Cn1cc(/C=C2\Oc3cccc(O)c3C2=O)c2c(-c3ccc(C(=O)N4CCNCC4)cc3)ccnc21 [Compound 136, (2Z)-4-hydroxy-2-({1-methyl-4-[4-(piperazin-1-ylcarbonyl)phenyl]-1H-pyrrolo[2,3-b]pyridin-3-yl}methylene)-1-benzofuran-3(2H)-one] | –
19 | 122 | 256 | 4.9 | Cn1cc(/C=C2\Oc3cccc(O)c3C2=O)c2c(-c3ccc(F)c(C(=O)Nc4ccccc4)c3)ccnc21 [Compound 137, 2-fluoro-5-{3-[(Z)-(4-hydroxy-3-oxo-1-benzofuran-2(3H)-ylidene)methyl]-1-methyl-1H-pyrrolo[2,3-b]pyridin-4-yl}-N-phenylbenzamide] | –
20 | 141 | 1230 | 7.8 | Cn1cc(/C=C2\Oc3cccc(O)c3C2=O)c2c(-c3cccc(C(=O)Nc4ccccc4)c3)ccnc21 [Compound 138, 3-{3-[(Z)-(4-hydroxy-3-oxo-1-benzofuran-2(3H)-ylidene)methyl]-1-methyl-1H-pyrrolo[2,3-b]pyridin-4-yl}-N-phenylbenzamide] | –
21 | 1580 | > 10000 | 8 | Cn1cc(/C=C2\Oc3cccc(O)c3C2=O)c2c(-c3ccc(N4CCCCC4)cc3)ccnc21 [Compound 142, (2Z)-4-hydroxy-2-{[1-methyl-4-(4-piperidin-1-ylphenyl)-1H-pyrrolo[2,3-b]pyridin-3-yl]methylidene}-1-benzofuran-3(2H)-one] | –
22 | 1320 | > 10000 | 80.5 | Cn1cc(/C=C2\Oc3cccc(O)c3C2=O)c2c(-c3ccc(N4CCCC4)cc3)ccnc21 [Compound 143, (2Z)-4-hydroxy-2-{[1-methyl-4-(4-pyrrolidin-1-ylphenyl)-1H-pyrrolo[2,3-b]pyridin-3-yl]methylidene}-1-benzofuran-3(2H)-one] | –
23 | 38 | 54 | 0.6 | Cn1cc(/C=C2\Oc3cccc(O)c3C2=O)c2c(-c3ccc(C(=O)NCCCO)cc3)ccnc21 [Compound 147, 4-{3-[(Z)-(4-hydroxy-3-oxo-1-benzofuran-2(3H)-ylidene)methyl]-1-methyl-1H-pyrrolo[2,3-b]pyridin-4-yl}-N-(3-hydroxypropyl)benzamide] | –

Row | Compound | IC50 [1] [nM] | IC50 [2] [nM] | IC50 [3, 4] [nM] | IC50 [3] [nM]
24 | CNC(=O)Nc1ccc2c(c1)C(=O)/C(=C/c1cn(CCN3CCN(C)CC3)c3ncc(OC)cc13)O2 [Compound 120, 1-[(2Z)-2-({5-methoxy-1-[2-(4-methylpiperazin-1-yl)ethyl]-1H-pyrrolo[2,3-b]pyridin-3-yl}methylene)-3-oxo-2,3-dihydro-1-benzofuran-5-yl]-3-methylurea] | 35 | 2380 | – | 285
25 | Cn1cc(/C=C2\Oc3cccc(O)c3C2=O)c2c(-c3ccc(C(=O)N4CCN(CCO)CC4)cc3)ccnc21 [Compound 146, (2Z)-4-hydroxy-2-{[4-(4-{[4-(2-hydroxyethyl)piperazin-1-yl]carbonyl}phenyl)-1-methyl-1H-pyrrolo[2,3-b]pyridin-3-yl]methylidene}-1-benzofuran-3(2H)-one] | 100 | 101 | 0.4 | –
